The supplement of paper PMC12533247
± gives the standard deviation of the averaged measurements.

Tests used:
[1] = test system: HSV-1 K26-GFP infected 3D skin equivalent; assay: % activity on HSV-1 GFP signal (0 = infected DMSO control, -100 = uninfected control); higher = higher signal (negative = inhibition / toxicity); conditions: time (h post infection): 48
Procedure: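 Triplicate dose-response (0.04 to 10 uM) of 11 top compounds in 3D bioprinted skin equivalents (submerged and ALI models) infected with GFP-HSV-1 K26 at MOI 0.1 and fixed at 48 hpi. GFP (virus) and tdTomato (fibroblast viability) signals are normalised to per-plate controls.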

[2] = test system: HSV-1 K26-GFP infected primary human skin cells; assay: % change of HSV-1 GFP signal vs untreated infected cells; higher = less antiviral inhibition; conditions: cell type: primary dermal fibroblasts, time (h post infection): 48
Procedure: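 2D primary donor-derived dermal fibroblasts infected with GFP-HSV-1 K26 at MOI 1, treated 1 h later with compound dilutions and read at 48 hpi on IncuCyte. GFP integrated intensity is normalised to mock-infected and untreated infected wells (% change; -100 = full inhibition).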

Row | Structure (SMILES) | % activity on HSV-1 GFP signal ([1]; 0.041152 µM, model: ALI) [%] | % activity on HSV-1 GFP signal ([1]; 0.041152 µM, model: submerged) [%] | % activity on HSV-1 GFP signal ([1]; 0.123457 µM, model: ALI) [%] | % activity on HSV-1 GFP signal ([1]; 0.123457 µM, model: submerged) [%] | % activity on HSV-1 GFP signal ([1]; 0.37037 µM, model: ALI) [%] | % activity on HSV-1 GFP signal ([1]; 0.37037 µM, model: submerged) [%] | % activity on HSV-1 GFP signal ([1]; 1.111111 µM, model: ALI) [%] | % activity on HSV-1 GFP signal ([1]; 1.111111 µM, model: submerged) [%] | % activity on HSV-1 GFP signal ([1]; 3.33333 µM, model: ALI) [%] | % activity on HSV-1 GFP signal ([1]; 3.33333 µM, model: submerged) [%] | % activity on HSV-1 GFP signal ([1]; 10 µM, model: ALI) [%] | % activity on HSV-1 GFP signal ([1]; 10 µM, model: submerged) [%] | % change of HSV-1 GFP signal ([2]; 0.001 µM, donor: 3) [%] | % change of HSV-1 GFP signal ([2]; 0.001 µM, donor: 4) [%] | % change of HSV-1 GFP signal ([2]; 0.003 µM, donor: 3) [%] | % change of HSV-1 GFP signal ([2]; 0.003 µM, donor: 4) [%] | % change of HSV-1 GFP signal ([2]; 0.0091 µM, donor: 3) [%] | % change of HSV-1 GFP signal ([2]; 0.0091 µM, donor: 4) [%] | % change of HSV-1 GFP signal ([2]; 0.0274 µM, donor: 3) [%] | % change of HSV-1 GFP signal ([2]; 0.0274 µM, donor: 4) [%] | % change of HSV-1 GFP signal ([2]; 0.0823 µM, donor: 3) [%] | % change of HSV-1 GFP signal ([2]; 0.0823 µM, donor: 4) [%] | % change of HSV-1 GFP signal ([2]; 0.2469 µM, donor: 3) [%] | % change of HSV-1 GFP signal ([2]; 0.2469 µM, donor: 4) [%] | % change of HSV-1 GFP signal ([2]; 0.7407 µM, donor: 3) [%] | % change of HSV-1 GFP signal ([2]; 0.7407 µM, donor: 4) [%] | % change of HSV-1 GFP signal ([2]; 2.2222 µM, donor: 3) [%] | % change of HSV-1 GFP signal ([2]; 2.2222 µM, donor: 4) [%] | % change of HSV-1 GFP signal ([2]; 6.6667 µM, donor: 3) [%] | % change of HSV-1 GFP signal ([2]; 6.6667 µM, donor: 4) [%] | % change of HSV-1 GFP signal ([2]; 20 µM, donor: 3) [%] | % change of HSV-1 GFP signal ([2]; 20 µM, donor: 4) [%] | % change of HSV-1 GFP signal ([2]; 60 µM, donor: 3) [%] | % change of HSV-1 GFP signal ([2]; 60 µM, donor: 4) [%]
1 | CC1(C)CC(=O)c2c(C(F)(F)F)nn(-c3ccc(C(N)=O)c(N[C@H]4CC[C@H](O)CC4)c3)c2C1 [SNX-2112] | -92.8 ± 5 | -58.7 ± 8.8 | -99.7 ± 5.3 | -81.7 ± 5.9 | -98.9 ± 6.7 | -98.1 ± 7.8 | -103 ± 4.6 | -101 ± 4.8 | -98.4 ± 6 | -105 ± 3.8 | -107 ± 7.2 | -102 ± 6.5 | 3.58 ± 4.6 | 7.21 ± 14 | 2.41 ± 10 | 7.68 ± 19 | 3.09 ± 24 | 10 ± 30 | -21.5 ± 25 | -8.2 ± 12 | -87.9 ± 5.2 | -77.6 ± 1.4 | -98.67 ± 0.4 | -98.8 ± 1 | -99.34 ± 0.5 | -99.59 ± 0.4 | -99.32 ± 0.49 | -99.73 ± 0.3 | -99.47 ± 0.27 | -99.66 ± 0.37 | -99.48 ± 0.42 | -99.71 ± 0.22 | – | –
2 | Cc1nc(N(C)C(=O)Cc2ccc(-c3ccccn3)cc2)sc1S(N)(=O)=O [Pritelivir] | 4.25 ± 52 | -6.28 ± 2.1 | -38.2 ± 38 | -11 ± 17 | -92.9 ± 12 | -37.4 ± 7.2 | -106 ± 3.8 | -83.7 ± 8.9 | -106 ± 3.5 | -96.7 ± 3 | -102 ± 4.8 | -94.6 ± 4 | 4.72 ± 8.3 | 1.2 ± 5.1 | 1.04 ± 12 | -0.451 ± 6.2 | -2.12 ± 11 | -4.4 ± 5 | -9.3 ± 18 | -16.7 ± 3.4 | -30 ± 18 | -36.8 ± 14 | -61 ± 13 | -74.4 ± 9.5 | -81.3 ± 8.3 | -91.2 ± 7.4 | -90.9 ± 9.8 | -99.47 ± 0.72 | -93.7 ± 8.7 | -99.82 ± 0.19 | -98.48 ± 0.79 | -99.71 ± 0.27 | – | –
3 | Cc1cccc(C)c1N(CC(=O)Nc1ccc(-c2ncon2)cc1)C(=O)C1CCS(=O)(=O)CC1 [Amenamevir] | -20.3 ± 12 | 2.22 ± 1.5 | -40.4 ± 26 | -17.6 ± 1.1 | -99.3 ± 4.2 | -61.9 ± 3.6 | -108 ± 8.2 | -84.6 ± 2.6 | -107 ± 2.8 | -89.2 ± 4.1 | -112 ± 4 | -85.3 ± 1.2 | -1.82 ± 12 | -1.13 ± 3.8 | -1.99 ± 14 | -8.69 ± 7.3 | -11 ± 19 | -24.4 ± 12 | -15.9 ± 30 | -37.9 ± 16 | -29.7 ± 32 | -61.9 ± 17 | -63.1 ± 12 | -76.9 ± 11 | -89.6 ± 8.5 | -84.4 ± 4.2 | -98.8 ± 1.4 | -94.5 ± 4.5 | -99.52 ± 0.47 | -99 ± 1.2 | -99.36 ± 0.81 | -99.59 ± 0.24 | – | –
4 | COc1ccc(-c2nc(N3CCOCC3)c3sc(CN(C)c4ncc(C(=O)NO)cn4)cc3n2)cn1 [Fimepinostat] | -85.1 ± 18 | 2.37 ± 11 | -97.4 ± 11 | 6.63 ± 8.2 | -79.6 ± 15 | -1.58 ± 24 | -64.2 ± 7.7 | -31.5 ± 15 | -78.3 ± 10 | -75.6 ± 8.3 | -88.6 ± 2.1 | -87.4 ± 7.2 | – | – | 27.2 ± 26 | -1.5 ± 7.9 | 32.4 ± 31 | -0.607 ± 6 | 30.4 ± 28 | -1.06 ± 14 | 27.5 ± 28 | 3.49 ± 9.3 | 29.4 ± 28 | -2.47 ± 6.9 | 21.4 ± 22 | -9.92 ± 24 | 14.6 ± 16 | -5.85 ± 18 | 11.3 ± 17 | -11.4 ± 14 | 8.87 ± 9.2 | -9.02 ± 15 | 7.95 ± 12 | -4.24 ± 17
